Strand notation (5' to 3'): a small letter for the sugar, then the base; units joined by * are phosphorothioate-linked, units joined directly phosphodiester-linked; [ ] holds rarer units or linkages, { } end groups; capitals alone tell only the bases. k = constrained ethyl (cEt); [5mC] = 5-methylcytosine; d = 2'-deoxy (DNA)
Test system: Yap1 mRNA
Test: Antisense inhibition of human Yap1 in A-431 cells by cEt gapmers, single dose (Example 3, RTS36584)
Type: cell-based
Procedure, shortened: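 Free uptake, 2,000 nM, ~48 h, A-431 cells. Gapmers: 16-mer 3-10-3 cEt wings, PS backbone, 5-MeC. Readout qRT-PCR, RiboGreen-normalized, % UTC.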

[1] = Table 12, A-431 cells, 5,000 cells per well, free uptake, 2,000 nM modified oligonucleotide, approx. 48 hours, RTS36584, normalized to RIBOGREEN, Yap1 mRNA relative to untreated control cells
[2] = Table 9, A-431 cells, 5,000 cells per well, free uptake, 2,000 nM, approximately 48 hours, RTS36584, normalized to RIBOGREEN, Yap1 mRNA relative to untreated control cells
[3] = Table 35, Yap1 mRNA as percent of untreated control, 3-10-3 cEt gapmers targeting SEQ ID NO: 1 and 2, single dose
[4] = Table 10, A-431 cells, 5,000 cells per well, free uptake, 2,000 nM oligonucleotide, approx. 48 hours, primer probe set RTS36584, Yap1 mRNA normalized to RIBOGREEN, percent of untreated control
[5] = Table 11, A-431 cells, 5,000 cells per well, free uptake, 2,000 nM oligonucleotide, approx. 48 hours, primer probe set RTS36584, Yap1 mRNA normalized to RIBOGREEN, percent of untreated control
[6] = Table 26, Yap1 mRNA by 3-10-3 cEt gapmers targeting SEQ ID NO.: 1, and 2, percent of untreated control
[7] = Table 13, A-431 cells, 5,000 cells per well, free uptake, 2,000 nM modified oligonucleotide, approx. 48 hours, RTS36584, normalized to RIBOGREEN, Yap1 mRNA relative to untreated control cells
[8] = Table 29, Yap1 mRNA as percent of untreated control, 3-10-3 cEt gapmers targeting SEQ ID NO.: 1, and 2
[9] = Table 8, A-431 cells, 5,000 cells per well, free uptake, 2,000 nM, approximately 48 hours, RTS36584, normalized to RIBOGREEN, Yap1 mRNA relative to untreated control cells
[10] = Table 27, Yap1 mRNA by 3-10-3 cEt gapmers targeting SEQ ID NO.: 1, and 2, percent of untreated control
[11] = Table 34, Yap1 mRNA as percent of untreated control, 3-10-3 cEt gapmers targeting SEQ ID NO: 1 and 2, single dose

Substance: 958674 (kA*kA*kG*dA*dA*d[5mC]*dT*dT*dA*dG*dT*dT*d[5mC]*k[5mC]*k[5mC]*kT; antisense) [Compound 958674]
- YAP1 (% UTC) [1]: 25 % UTC

Substance: 958546 (k[5mC]*kA*kT*dA*d[5mC]*dT*d[5mC]*dT*dA*dG*dT*dT*dA*k[5mC]*kA*kT; antisense) [Compound 958546]
- YAP1 (% UTC) [2]: 6 % UTC

Substance: 1075189 (kG*k[5mC]*kT*dA*dA*dT*dA*dG*dT*d[5mC]*dA*d[5mC]*dT*kG*kT*kT; antisense) [compound 1075189]
- YAP1 (% UTC) [3]: 11 % UTC

Substance: 958702 (antisense kT*kG*kA*dT*dG*dT*d[5mC]*dT*dT*dG*dT*d[5mC]*d[5mC]*kA*kG*kA) [Compound 958702]
- YAP1 (% UTC) [4]: 16 % UTC

Substance: 958473 (antisense kG*kT*k[5mC]*dT*d[5mC]*d[5mC]*dT*dT*dA*dG*dA*dT*d[5mC]*k[5mC]*kT*kT) [Compound 958473]
- YAP1 (% UTC) [5]: 5 % UTC

Substance: 1074220 (antisense kA*kA*kT*dG*dA*dG*d[5mC]*dT*d[5mC]*dG*dA*dA*d[5mC]*kA*kT*kG) [compound 1074220]
- YAP1 (% UTC) [6]: 22 % UTC

Substance: 1076437 (kG*kA*kA*dG*dA*dA*dT*dA*dG*d[5mC]*dA*dT*d[5mC]*kT*kG*kA; antisense) [compound 1076437]
- YAP1 (% UTC) [3]: 19 % UTC

Substance: 958550 (k[5mC]*k[5mC]*kT*dG*dT*dA*dG*dA*d[5mC]*dA*d[5mC]*dA*dT*kA*k[5mC]*kT; antisense) [Compound 958550]
- YAP1 (% UTC) [7]: 4 % UTC

Substance: 958553 (k[5mC]*k[5mC]*kA*dT*dT*dA*dT*dT*dA*d[5mC]*dT*d[5mC]*d[5mC]*kT*kG*kT; antisense) [Compound 958553]
- YAP1 (% UTC) [5]: 1 % UTC

Substance: 1075503 (kG*k[5mC]*kT*dG*dA*dA*dA*dA*dA*dG*dG*dG*d[5mC]*kT*kT*kA; antisense) [compound 1075503]
- YAP1 (% UTC) [8]: 66 % UTC

Substance: 958804 (antisense kA*kG*kA*dT*dA*dA*dT*d[5mC]*dA*dT*d[5mC]*d[5mC]*dT*k[5mC]*kA*kG) [Compound 958804]
- YAP1 (% UTC) [1]: 17 % UTC

Substance: 958405 (antisense kT*kT*kA*dT*dG*dG*dG*dA*dT*dG*dA*dG*dT*kG*k[5mC]*kT) [Compound 958405]
- YAP1 (% UTC) [9]: 24 % UTC

Substance: 958813 (kT*kT*kA*d[5mC]*dA*dG*dA*dG*dA*dG*dA*dT*dT*k[5mC]*kA*kT; antisense) [Compound 958813]
- YAP1 (% UTC) [5]: 8 % UTC

Substance: 958634 (antisense kT*k[5mC]*k[5mC]*dT*dT*dA*dA*d[5mC]*d[5mC]*d[5mC]*dG*dG*dG*kT*kT*kT) [Compound 958634]
- YAP1 (% UTC) [1]: 61 % UTC

Substance: 1075695 (kG*kA*kA*dT*dA*dA*d[5mC]*dA*d[5mC]*d[5mC]*dA*d[5mC]*dA*kT*kT*kA; antisense) [compound 1075695]
- YAP1 (% UTC) [8]: 30 % UTC

Substance: 1075949 (antisense kT*kA*kG*dG*dA*dA*d[5mC]*dA*d[5mC]*d[5mC]*dA*dA*dG*kG*kT*kT) [compound 1075949]
- YAP1 (% UTC) [10]: 48 % UTC

Substance: 1075148 (k[5mC]*kG*kG*dA*dA*dA*dA*dA*dA*d[5mC]*dA*d[5mC]*d[5mC]*kT*kA*kG; antisense) [compound 1075148]
- YAP1 (% UTC) [6]: 66 % UTC

Substance: 958755 (antisense kT*kA*kA*d[5mC]*dA*dT*dA*dA*dG*dA*d[5mC]*dA*d[5mC]*kG*kG*kA) [Compound 958755]
- YAP1 (% UTC) [7]: 12 % UTC

Substance: 1075789 (kA*kA*kT*dT*dA*d[5mC]*dA*dA*dG*d[5mC]*dT*dA*dA*kT*kG*k[5mC]; antisense) [compound 1075789]
- YAP1 (% UTC) [10]: 79 % UTC

Substance: 1075535 (kA*kA*kT*dT*dA*d[5mC]*d[5mC]*d[5mC]*dA*dA*dG*dG*dA*k[5mC]*kA*kG; antisense) [compound 1075535]
- YAP1 (% UTC) [8]: 53 % UTC

Substance: 1076205 (kT*kA*kG*dT*dA*dT*dA*dA*dT*dT*d[5mC]*dA*dT*kG*kA*k[5mC]; antisense) [compound 1076205]
- YAP1 (% UTC) [10]: 51 % UTC

Substance: 958623 (antisense kT*kT*kG*dA*dT*dA*dT*dT*d[5mC]*d[5mC]*dG*d[5mC]*dA*kT*kT*kG) [Compound 958623]
- YAP1 (% UTC) [5]: 3 % UTC

Substance: 1075054 (antisense k[5mC]*kA*kA*dT*dA*dT*dA*dT*dA*d[5mC]*dT*dT*dG*kA*kT*k[5mC]) [compound 1075054]
- YAP1 (% UTC) (Table 28, Yap1 mRNA as percent of untreated control, 3-10-3 cEt gapmers targeting SEQ ID NO.: 1, and 2): 48 % UTC

Substance: 958394 (antisense kT*kT*kG*dA*dA*dA*d[5mC]*d[5mC]*dT*dG*dA*dT*d[5mC]*k[5mC]*kT*kT) [Compound 958394]
- YAP1 (% UTC) [9]: 54 % UTC

Substance: 958695 (antisense kT*k[5mC]*kA*dA*dT*dT*d[5mC]*dT*d[5mC]*d[5mC]*dA*d[5mC]*d[5mC]*kA*kG*kA) [Compound 958695]
- YAP1 (% UTC) [7]: 45 % UTC

Substance: 958689 (antisense k[5mC]*kA*kT*dT*dA*dA*dG*dG*dA*dG*dG*dT*dT*kA*kT*kG) [Compound 958689]
- YAP1 (% UTC) [1]: 87 % UTC

Substance: 1074709 (antisense kT*k[5mC]*kT*dA*dG*dA*dA*d[5mC]*dA*dG*d[5mC]*dT*dG*k[5mC]*k[5mC]*kT) [compound 1074709]
- YAP1 (% UTC) [3]: 71 % UTC

Substance: 1074124 (kG*kG*k[5mC]*dT*dG*d[5mC]*dG*dA*dG*dG*d[5mC]*dA*d[5mC]*kT*k[5mC]*kG; antisense) [compound 1074124]
- YAP1 (% UTC) [6]: 94 % UTC

Substance: 958562 (k[5mC]*kA*kT*dT*dG*dA*dA*dA*dG*dA*d[5mC]*d[5mC]*d[5mC]*kT*kT*kA; antisense) [Compound 958562]
- YAP1 (% UTC) [4]: 6 % UTC

Substance: 1074671 (antisense k[5mC]*kA*kA*dG*dT*dA*dG*d[5mC]*dT*dT*dT*dG*dA*kT*k[5mC]*kT) [compound 1074671]
- YAP1 (% UTC) [8]: 8 % UTC

Substance: 1074900 (antisense kA*kT*kT*dA*dA*d[5mC]*dT*dT*dT*dT*dG*dG*dG*k[5mC]*kA*kA) [compound 1074900]
- YAP1 (% UTC) [11]: 40 % UTC

Substance: 1076300 (kA*kA*kA*dA*dA*dA*dT*dG*dG*d[5mC]*dT*dT*d[5mC]*kA*k[5mC]*kG; antisense) [compound 1076300]
- YAP1 (% UTC) [6]: 22 % UTC

Substance: 958677 (kA*kG*kA*dA*d[5mC]*dT*dT*dA*dG*dT*dT*d[5mC]*d[5mC]*k[5mC]*kT*kA; antisense) [Compound 958677]
- YAP1 (% UTC) [4]: 51 % UTC

Substance: 1075412 (antisense kT*k[5mC]*k[5mC]*dA*dA*dA*dA*dA*dG*dG*dG*dT*dA*kA*kG*kG) [compound 1075412]
- YAP1 (% UTC) [11]: 48 % UTC

Substance: 1074700 (antisense kG*kT*kA*dA*dG*dA*d[5mC]*dA*dA*dG*dT*d[5mC]*dT*kT*kT*kA) [compound 1074700]
- YAP1 (% UTC) [6]: 26 % UTC

Substance: 958776 (antisense kG*kG*kT*dA*d[5mC]*dT*d[5mC]*dT*d[5mC]*d[5mC]*dT*dT*d[5mC]*kA*kG*kA) [Compound 958776]
- YAP1 (% UTC) [2]: 94 % UTC

Substance: 1074965 (antisense kG*kT*kG*dT*dT*dT*dA*dG*dG*d[5mC]*dA*dA*dG*k[5mC]*kA*kG) [compound 1074965]
- YAP1 (% UTC) [3]: 20 % UTC

Substance: 958474 (antisense kG*kT*kG*dT*d[5mC]*dT*d[5mC]*d[5mC]*dT*dT*dA*dG*dA*kT*k[5mC]*k[5mC]) [Compound 958474]
- YAP1 (% UTC) [1]: 3 % UTC

Substance: 958479 (antisense kA*kT*kG*dG*dA*dA*dA*dT*dT*dT*d[5mC]*d[5mC]*dG*kG*kT*kG) [Compound 958479]
- YAP1 (% UTC) [1]: 15 % UTC

Substance: 958724 (antisense kT*k[5mC]*kA*dG*dT*dT*dA*dT*d[5mC]*d[5mC]*dT*dA*dT*k[5mC]*k[5mC]*k[5mC]) [Compound 958724]
- YAP1 (% UTC) [1]: 2 % UTC

Substance: 958398 (antisense kG*k[5mC]*kA*dG*dG*d[5mC]*dT*dA*dT*dT*dA*dA*dG*k[5mC]*kT*kG) [Compound 958398]
- YAP1 (% UTC) [9]: 76 % UTC

Substance: 958380 (antisense k[5mC]*kG*k[5mC]*dG*d[5mC]*d[5mC]*d[5mC]*dG*d[5mC]*d[5mC]*d[5mC]*dG*d[5mC]*kA*k[5mC]*k[5mC]) [Compound 958380]
- YAP1 (% UTC) [9]: 106 % UTC

Substance: 958727 (antisense kA*kT*k[5mC]*dT*dG*dT*d[5mC]*dA*dG*dT*dT*dA*dT*k[5mC]*k[5mC]*kT) [Compound 958727]
- YAP1 (% UTC) [4]: 2 % UTC

Substance: 958452 (antisense k[5mC]*kT*k[5mC]*d[5mC]*dA*dG*dG*dT*d[5mC]*dG*dG*dT*d[5mC]*kT*k[5mC]*k[5mC]) [Compound 958452]
- YAP1 (% UTC) [4]: 26 % UTC

Substance: 1076111 (kA*kA*kT*dT*dA*dG*dT*dT*dA*dG*dG*dA*dT*kA*kT*k[5mC]; antisense) [compound 1076111]
- YAP1 (% UTC) [8]: 67 % UTC

Substance: 958730 (antisense k[5mC]*kT*k[5mC]*dT*dG*dT*d[5mC]*dA*dG*dT*dT*dA*dT*k[5mC]*k[5mC]*kT) [Compound 958730]
- YAP1 (% UTC) [7]: 4 % UTC
